What was measured:
[1] = test system: differentiated N1E-115 cells; assay: N1E-115 cell detachment (methylene blue staining); type: cell-based, mouse
Procedure: FIG. 4 is a set of graphs illustrating stimulation of tPA-mediated plasmin formation by Aβ and synergistic stimulation of cell detachment by plasminogen and Aβ. Panel A depicts that plasminogen (200 μg/ml) and tPA (200 pM) were incubated with Aβ (5 μM) or control buffer. Samples were taken from the reaction mixture at the indicated periods of time and plasmin activity was measured by conversion of the chromogenic plasmin substrate S-2251 at 405 nm. […] After 48 hours, the dead cells were washed away and the remaining adherent cells were stained with methylene blue. Plasmin cannot prevent Aβ-induced cell detachment. Panel C illustrates that N1E-115 cells were differentiated and received the indicated concentrations of plasminogen in the presence or absence of 10 μM Aβ. After 24 hours, cell detachment was assessed. […] Panel D is an immunoblot analysis of plasmin formation and laminin degradation. Differentiated N1E-115 cells were treated with or without Aβ (10 μM) in the absence or presence of added plasminogen. Addition of Aβ results in the formation of plasmin (bottom panel) and in degradation of laminin (top panel).
FIG. 5 depicts graphs illustrating that carboxypeptidase B inhibits Aβ-stimulated tPA-mediated plasmin formation and cell detachment. […] Samples were taken from the reaction mixture at the indicated periods of time and plasmin activity was measured by conversion of the chromogenic plasmin substrate S-2251 at 405 nm. The reaction was performed in the absence or the presence of 50 μg ml^−1 carboxypeptidase B (CpB) and in the absence or presence of 3.5 μM carboxypeptidase inhibitor (CPI). CpB greatly attenuates A-stimulated plasmin formation. […] After 24 hours, the cells were photographed. Panel C illustrates that, subsequently, the cells were washed once with PBS and the remaining cells were quantified as percentage-adhered cells by methylene blue staining. In Panel D, the cells were treated as in Panels B and C and medium and cell fractions were collected and analyzed by Western blot using an anti-plasmin(ogen) antibody. Aβ stimulates plasmin formation that is inhibited by CpB.
N1E-115 mouse neuroblastoma cells were routinely cultured in DMEM containing 5% FCS, supplemented with antibiotics. Cells were differentiated into post-mitotic neurons.^52 The cells were exposed to Aβ (50 μg ml^−1) for 24 hours in the presence or absence of 20 μg ml^−1 plasminogen in the presence or absence of 50 μg ml^−1 CpB. Cells were photographed, counted and lysed by the addition of 4× sample buffer (250 mM Tris pH 6.8, 8% SDS, 10% glycerol, 100 mM DTT, 0.01% w/v bromophenol blue) to the medium. The lysate, containing both adherent and floating (presumably dying and/or dead) cells, as well as the culture medium, were analyzed for the presence of plasminogen and plasmin, as well as for laminin, by Western blot analysis using specific antibodies against plasminogen (MoAb 3642, American Diagnostics), laminin (PoAb L9393, Sigma).

Aβ = target: T1, Aβ (Homo sapiens, UniProt P05067); assay: Solid-phase binding ELISA of tPA, plasminogen and plasmin to coated Aβ
T1 construct: Peptide Aβ (1-40), containing amino acids as present in the described human Alzheimer peptide; purchased Pepscan, Inc. or peptide synthesis facility of the Netherlands Cancer Institute; host or cells: chemical synthesis
T1 sequence (P05067 672-711): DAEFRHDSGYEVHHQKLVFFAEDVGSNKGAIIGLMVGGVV
Procedure: FIG. 3 is a set of graphs depicting binding of tPA, plasminogen and plasmin to Aβ. Aβ was coated onto plastic 96-well plates. Increasing concentrations of either (A) tPA or (B) plasmin(ogen) were allowed to bind to the immobilized peptide. After extensive washing, tPA and plasmin(ogen) binding was assessed by enzyme-linked immunosorbent assays using anti-tPA and anti-plasminogen antibodies. Binding of (C) tPA and (D) plasmin to Aβ in the presence of 50 mM ε-aminocaproic acid (ε-ACA) was assessed as in A and B.
To test whether tPA, plasminogen and plasmin bind Aβ, solid-phase binding assays were performed. Aβ was coated onto plastic 96-well plates and binding of the peptide to either plasmin(ogen) or to tPA was assessed by overlaying the coated peptide with increasing concentrations of either tPA, plasminogen or plasmin. Binding was assessed using specific antibodies to either plasmin(ogen) or to tPA by performing ELISA. […] However, activated plasminogen (plasmin) does bind to Aβ and does so with a kD of 47 nM. […] To test this, use was made of the lysine analogue ε-aminocaproic acid (εACA) and binding of plasmin and tPA to Aβ was tested in its presence. […] In contrast, εACA has no effect on the tPA-Aβ interaction (FIG. 3, Panel C). Thus, it was concluded that plasmin binds to free lysines that were generated during the incubation period, presumably via its lysine-binding Kringle domain(s). In line with this, the kD of plasminogen Kringle domain binding to free lysines in fibrin is similar to the kD for plasmin binding to Aβ.

plasminogen: inactive precursor of plasmin, cleaved by tPA
cell adhesion in the absence of Aβ ([1]; 24 hours): no effect
minimal levels required to potentiate Aβ-induced cell detachment ([1]; 24 hours): 10 to 20 µg/mL
effect on Aβ-induced cell detachment ([1]; suboptimal Aβ (10 μM), low plasminogen, 24 hours): dramatic potentiating effect
binding to Aβ (Aβ; Aβ coated onto plastic 96-well plates): No detectable binding

B1: plasmin: activated plasminogen (protein)
chain: KVYLSECKTGNGKNYRGTMSKTKNGITCQKWSSTSPHRPRFSPATHPSEGLEENYCRNPDNDPQGPWCYTTDPEKRYDYCDILECEEECMHCSGENYDGKISKTMSGLECQAWDSQSPHAHGYIPSKFPNKNLKKNYCRNPDRELRPWCFTTDPNKRWELCDIPRCTTPPPSSGPTYQCLKGTGENYRGNVAVTVSGHTCQHWSAQTPHTHNRTPENFPCKNLDENYCRNPDGKRAPWCHTTNSQVRWEYCKIPSCDSSPVSTEQLAPTAPPELTPVVQDCYHGDGQSYRGTSSTTTTGKKCQSWSSMTPHRHQKTPENYPNAGLTMNYCRNPDADKGPWCFTTDPSVRWEYCNLKKCSGTEASVVAPPPVVLLPDVETPSEEDCMFGNGKGYRGKRATTVTGTPCQDWAAQEPHRHSIFTPETNPRAGLEKNYCRNPDGDVGGPWCYTTNPRKLYDYCDVPQCAAPSFDCGKPQVEPKKCPGRVVGGCVAHPHSWPWQVSLRTRFGMHFCGGTLISPEWVLTAAHCLEKSPRPSSYKVILGAHQEVNLEPHVQEIEVSRLFLEPTRKDIALLKLSSPAVITDKVIPACLPSPNYVVADRTECFITGWGETQGTFGAGLLKEAQLPVIENKVCNRYEFLNGRVQSTELCAGHLAGGTDSCQGDSGGPLVCFEKDKYILQGVTSWGLGCARPNKPGVYVRVSRFVTWIEGVMRNN
effect on Aβ-induced cell detachment ([1]; plasmin added with Aβ (25 μM), 48 hours): unable to ameliorate
binding to Aβ in the presence of εACA (Aβ; 50 mM ε-aminocaproic acid): completely abolished

From patent publication US8158585B2, “Cross-β structure comprising amyloid-binding proteins and methods for detection of the cross-β structure, for modulating cross-β structures fiber formation and modulating cross-β structure-mediated toxicity” (CrossBeta Biosciences B.V., priority 2002, dated 2012)
